Source: article PMC4904262 (ACS Medicinal Chemistry Letters, 2016)
Like-named read-outs stand apart in the source and are kept apart here. One block for each compound: values may come before it.

Experiments:
CDK8 = CDK8 (Homo sapiens, UniProt P49336); assay type: binding; settings: versus parent analogue
in vitro [1] = settings: human, microsomes
WNT signaling [2] = assay: cells; settings: 7dF3, read-out: 7dF3 IC50
[3] = mouse
in vitro [4] = settings: rat, microsomes
in vitro [5] = settings: mouse, microsomes
aldehyde oxidase [6] = target: T1, aldehyde oxidase (Homo sapiens, UniProt Q06278); assay: in vitro; settings: cytosol
aldehyde oxidase [7] = target: T1, aldehyde oxidase
WNT signaling [8] = settings: read-out: 7dF3 IC50; Figure 1; cited from earlier work
CDK19 = settings: read-out: CDK19 IC50; Figure 1; cited from earlier work
WNT signaling [9] = settings: for drop off in the cell-based assay: cell-based versus CDK8 affinity; for fold less active in the cell-based assay: relative to 4
Caco-2 = settings: human
[10] = human
in vitro [11] = settings: human, Caco-2

T1 sequence (Q06278 whole entry): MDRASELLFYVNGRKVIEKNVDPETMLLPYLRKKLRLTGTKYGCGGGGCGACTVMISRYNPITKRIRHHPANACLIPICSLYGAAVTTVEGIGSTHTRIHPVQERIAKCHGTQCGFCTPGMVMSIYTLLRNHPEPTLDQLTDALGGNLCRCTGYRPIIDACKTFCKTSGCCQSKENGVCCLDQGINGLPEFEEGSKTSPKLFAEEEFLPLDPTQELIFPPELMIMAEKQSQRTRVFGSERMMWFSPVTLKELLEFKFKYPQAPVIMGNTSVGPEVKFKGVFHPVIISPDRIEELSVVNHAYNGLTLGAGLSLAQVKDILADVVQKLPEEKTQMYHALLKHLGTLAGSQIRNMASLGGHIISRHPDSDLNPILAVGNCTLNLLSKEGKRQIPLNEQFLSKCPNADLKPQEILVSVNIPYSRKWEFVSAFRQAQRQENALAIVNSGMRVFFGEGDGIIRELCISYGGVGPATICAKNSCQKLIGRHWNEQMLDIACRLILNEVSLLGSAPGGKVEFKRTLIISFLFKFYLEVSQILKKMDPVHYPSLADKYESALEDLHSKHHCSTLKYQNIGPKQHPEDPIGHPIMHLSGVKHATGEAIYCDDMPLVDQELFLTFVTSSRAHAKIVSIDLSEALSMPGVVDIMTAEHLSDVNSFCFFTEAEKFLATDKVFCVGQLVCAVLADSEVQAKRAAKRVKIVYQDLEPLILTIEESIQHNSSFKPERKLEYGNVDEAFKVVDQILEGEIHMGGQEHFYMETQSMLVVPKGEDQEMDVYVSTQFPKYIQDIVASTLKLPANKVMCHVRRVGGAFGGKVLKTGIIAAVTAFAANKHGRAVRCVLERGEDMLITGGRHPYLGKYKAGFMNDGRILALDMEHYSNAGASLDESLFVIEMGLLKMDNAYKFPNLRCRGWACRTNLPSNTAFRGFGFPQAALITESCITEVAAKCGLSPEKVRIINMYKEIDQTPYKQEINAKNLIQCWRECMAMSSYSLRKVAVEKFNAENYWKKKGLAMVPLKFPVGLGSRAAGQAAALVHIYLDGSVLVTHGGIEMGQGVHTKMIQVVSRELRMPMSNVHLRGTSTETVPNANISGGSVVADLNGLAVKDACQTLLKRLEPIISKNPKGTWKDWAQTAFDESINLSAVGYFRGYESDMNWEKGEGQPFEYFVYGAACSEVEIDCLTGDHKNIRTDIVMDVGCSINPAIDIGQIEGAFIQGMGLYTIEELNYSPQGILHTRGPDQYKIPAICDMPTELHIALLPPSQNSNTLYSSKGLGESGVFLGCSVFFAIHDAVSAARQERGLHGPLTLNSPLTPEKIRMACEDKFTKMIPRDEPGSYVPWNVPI
Sequence of CDK8 (P49336 whole entry): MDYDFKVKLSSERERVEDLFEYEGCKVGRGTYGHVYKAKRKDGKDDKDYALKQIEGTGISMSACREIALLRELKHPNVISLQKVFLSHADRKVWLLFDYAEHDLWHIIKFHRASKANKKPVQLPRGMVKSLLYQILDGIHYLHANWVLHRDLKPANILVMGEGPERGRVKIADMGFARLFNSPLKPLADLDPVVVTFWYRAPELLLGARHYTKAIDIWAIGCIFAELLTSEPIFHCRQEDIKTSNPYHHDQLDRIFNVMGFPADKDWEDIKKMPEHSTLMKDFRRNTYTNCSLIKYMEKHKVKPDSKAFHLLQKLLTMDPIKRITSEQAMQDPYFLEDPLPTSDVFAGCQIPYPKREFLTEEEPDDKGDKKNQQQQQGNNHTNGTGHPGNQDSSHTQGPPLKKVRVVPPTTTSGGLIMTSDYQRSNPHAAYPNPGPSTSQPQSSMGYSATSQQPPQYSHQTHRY
Sequence of CDK8 (P24863 whole entry, further chain): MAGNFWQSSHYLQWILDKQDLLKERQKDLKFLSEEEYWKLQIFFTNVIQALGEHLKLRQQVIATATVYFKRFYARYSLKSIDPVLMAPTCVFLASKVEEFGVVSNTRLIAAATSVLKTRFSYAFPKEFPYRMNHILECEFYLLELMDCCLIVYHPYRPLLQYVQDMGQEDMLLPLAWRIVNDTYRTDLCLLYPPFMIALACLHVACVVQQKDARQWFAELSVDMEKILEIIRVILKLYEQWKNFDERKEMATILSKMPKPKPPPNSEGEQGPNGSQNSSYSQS

Compound: Cn1cc(-c2ccc(-c3cnc(N)c4ccc(-c5nccn5C)nc34)cc2)cn1 [Compound 57]
drop in CDK8 affinity (CDK8): 225 fold

Compound: CNC(=O)c1ccc2c(N)ncc(-c3ccc4c(c3)CS(=O)(=O)N4C)c2n1 [Compound 48]
microsomal CLint (in vitro [1]): 18 µL/min/mg
IC50 (WNT signaling [2]): 9.3 ± 2.3 nM
Cl ([3]; Balb/C, in vivo): 213 mL/min/kg
F ([3]; Balb/C, in vivo): 29%
Vss ([3]; Balb/C, in vivo): 5.64 L/kg
microsomal CLint (in vitro [4]): 24 µL/min/mg
microsomal CLint (in vitro [5]): 94 µL/min/mg
CLint scaled at 1 µM (aldehyde oxidase [6]): 15 mL/min/kg
AO substrate (Enzyme assay) (aldehyde oxidase [7]): No

Compound: Cn1ncc2cc(-c3cnc(N)c(Cl)c3N3CCC4(CCNC4=O)CC3)ccc21 [Compound 2]
IC50 (WNT signaling [8]): 11.8 ± 17.9 nM
IC50 (CDK19): 2.6 ± 0.4 nM

Compound: Cn1cc(-c2ccc(-c3cncc4ccc(S(N)(=O)=O)cc34)cc2)cn1 [Compound 36]
drop off in the cell-based assay (WNT signaling [9]): 12 fold
microsomal CLint at 1 µM (in vitro [1]): 47 µL/min/mg
microsomal CLint at 1 µM (in vitro [4]): 220 µL/min/mg
microsomal CLint at 1 µM (in vitro [5]): 125 µL/min/mg

microsomal CLint (in vitro [1]): < 10 µL/min/mg
Cl ([3]; Balb/C, in vivo): 58.5 mL/min/kg
F ([3]; Balb/C, in vivo): <5%
Vss ([3]; Balb/C, in vivo): 2.49 L/kg
microsomal CLint (in vitro [4]): < 10 µL/min/mg
microsomal CLint at 1 µM (in vitro [5]): 36 µL/min/mg
CLint scaled at 1 µM (aldehyde oxidase [6]): < 4.2 mL/min/kg
Caco-2 ER (Caco-2): 145
Caco-2 PappA-B (Caco-2): 0.96 × 10^–6 cm/s
Compound: Cn1cc(-c2ccc(-c3cnc(N)c4ccc(C(=O)N5CCNCC5)nc34)cc2)cn1 [Compound 49]

microsomal CLint (in vitro [1]): < 10 µL/min/mg
in vivo clearance [3]: exceeded liver blood flow
Cl ([3]; in vivo): Not measurable
F ([3]; in vivo): Not measurable
Vd ([3]; in vivo): Not measurable
microsomal CLint at 1 µM (in vitro [4]): 21 µL/min/mg
microsomal CLint at 1 µM (in vitro [5]): 23 µL/min/mg
% of parent compd remaining after 45 min (aldehyde oxidase [7]; human, cytosol, 0.75 h, 1 µM): 20%
Papp A→B (in vitro [11]): 5.94 ×10⁻⁶ cm/s
efflux ratio (in vitro [11]): 7.26
Compound: CNC(=O)c1ccc2cncc(-c3ccc4c(c3)CS(=O)(=O)N4)c2n1 [Compound 8]
main metabolite [10]: oxidation to give the C5-OH compound 37 as the main metabolite

Compound: CC(=O)Nc1ccc2cncc(-c3ccc(-c4cnn(C)c4)cc3)c2n1 [Compound 18]
fold less active in the cell-based assay (WNT signaling [9]): 10 fold
microsomal CLint at 1 µM (in vitro [1]): 26 µL/min/mg
microsomal CLint at 1 µM (in vitro [4]): 247 µL/min/mg
microsomal CLint at 1 µM (in vitro [5]): 168 µL/min/mg

microsomal CLint at 1 µM (in vitro [1]): 15 µL/min/mg
F ([3]; Balb/C, in vivo): 16%
Vss ([3]; Balb/C, in vivo): 2.7 L/kg
in vivo clearance [3]: exceeded liver blood flow
microsomal CLint at 1 µM (in vitro [4]): 142 µL/min/mg
microsomal CLint at 1 µM (in vitro [5]): 76 µL/min/mg
CLint scaled at 1 µM (aldehyde oxidase [6]): 598 mL/min/kg
AO substrate (Enzyme assay) (aldehyde oxidase [7]): Yes
Papp A→B (in vitro [11]): 38.3 ×10⁻⁶ cm/s
efflux ratio (in vitro [11]): 1.02
Compound: CNC(=O)c1ccc2cncc(-c3ccc4c(c3)CS(=O)(=O)N4C)c2n1 [Compound 7]

Compound: Cn1cc(-c2ccc(-c3cncc4ccc(N5CCCS5(=O)=O)cc34)cc2)cn1 [Compound 35]
drop off in the cell-based assay (WNT signaling [9]): 7 fold
microsomal CLint at 1 µM (in vitro [1]): 54 µL/min/mg
microsomal CLint at 1 µM (in vitro [4]): 81 µL/min/mg
microsomal CLint at 1 µM (in vitro [5]): 213 µL/min/mg

Compound: Cn1cc(-c2ccc(-c3cncc(Cl)c3N3CCC4(CCNC4=O)CC3)cc2)cn1 [Compound 1]
IC50 (WNT signaling [8]): 5 ± 1 nM
IC50 (CDK19): 6 ± 1 nM

Compound: Cn1cc(-c2ccc(-c3cncc4ccc(N5CCCC5=O)nc34)cc2)cn1 [Compound 19]
fold less active in the cell-based assay (WNT signaling [9]): 10 fold
microsomal CLint at 1 µM (in vitro [1]): 143 µL/min/mg
microsomal CLint at 1 µM (in vitro [4]): 253 µL/min/mg
microsomal CLint at 1 µM (in vitro [5]): 392 µL/min/mg
CLint scaled at 1 µM (aldehyde oxidase [6]): 418 mL/min/kg
